Data as given in patent US20090048336A1, “ESCITALOPRAM OXALATE POWDERS” (priority 2007, published 2009).
Where a name gives a salt, the structure may show the parent alone.

Assay: Particle size distribution of micronized escitalopram oxalate batches (laser light diffraction, Malvern instrument)
Format: physicochemical
Settings: micronized powder; for D50/D95: ratio of D50 to D95; for D50: size below which 50 volume percent of particles lie; for D50 / D95: Malvern instrument; for D95: size below which 95 volume percent of particles lie
Excerpt: The term D95 as used herein is defined as a size of particles where 95 volume percent of the particles have sizes less than the value given. The term D50 defines a size where 50 volume percent of the particles have sizes less than the value given.
The particle size distributions for the present application can measured using laser light diffraction equipment, such as are sold by Malvern Instruments Ltd., Malvern, Worcestershire, United Kingdom. Other types of equipment are also suitable for particle size distribution determinations.
The obtained solid was micronized in a jet mill to produce desired particle sizes. The feed pressure was adjusted to about 2 Kg/cm^2; the chamber pressure was adjusted to about 1.5 Kg/cm^2 and the feed rate to about 1 to 2 kg/hour. The material fed into the micronizer through a charging hopper. The obtained micronized material was collected into a container.

Structure (SMILES) | D50/D95 (listed as 2) | D50 (listed as 2) | D95 (listed as 2) | D50/D95 (listed as 1) | D50 (listed as 1) | D95 (listed as 1)
CN(C)CCCC1(c2ccc(F)cc2)OCc2cc(C#N)ccc21 (stereo not drawn) [Batch 2, S-(+)-1-[3-(dimethyl-amino)propyl]-1-(p-fluorophenyl)-5-phthalancarbonitrile oxalate] | 0.4653 | 4.56 | 9.80 |  |  | 
CN(C)CCCC1(c2ccc(F)cc2)OCc2cc(C#N)ccc21 (stereo not drawn) [Batch 1, S-(+)-1-[3-(dimethyl-amino)propyl]-1-(p-fluorophenyl)-5-phthalancarbonitrile oxalate] |  |  |  | 0.4293 | 3.95 | 9.20
